{
  "source": "patent US20150366813A1",
  "about": "“LIQUID-FILLED IMMEDIATE RELEASE SOFT GELATIN CAPSULES” (Banner Life Sciences LLC, priority 2014, published 2015)",
  "test": "Particle size distribution of micronized and non-micronized dabigatran etexilate mesylate",
  "format": "physicochemical",
  "conditions": "DEM particle diameter distribution",
  "source_text": "Examples of dabigatran etexilate mesylate particle size useful for the pharmaceutical composition described herein are shown in Table 9. The distribution of dabigatran etexilate mesylate particle sizes is set forth by the diameter distribution in either micronized or non-micronized samples. The dissolution of micronized and non-micronized dabigatran etexilate mesylate particles was studied using the matrix fill corresponding to DEM A as shown in Table 8 encapsulated in a hard gelatin capsule.",
  "note": "Where a name gives a salt, the structure may show the parent alone.",
  "data": [
    {"smiles": "CCCCCCOC(=O)N=C(N)c1ccc(NCc2nc3cc(C(=O)N(CCC(=O)OCC)c4ccccn4)ccc3n2C)cc1", "note": "[Micronized, dabigatran etexilate mesylate]", "values": [
      {"measurement": "Particle size D(v, 0.1)", "result": 1.5, "unit": "μm"},
      {"measurement": "Particle size D(v, 0.5)", "result": 4.2, "unit": "μm"},
      {"measurement": "Particle size D(v, 0.9)", "result": 10.5, "unit": "μm"}
    ]},
    {"smiles": "CCCCCCOC(=O)N=C(N)c1ccc(NCc2nc3cc(C(=O)N(CCC(=O)OCC)c4ccccn4)ccc3n2C)cc1", "note": "[Non-micronized, dabigatran etexilate mesylate]", "values": [
      {"measurement": "Particle size D(v, 0.1)", "result": 4.7, "unit": "μm"},
      {"measurement": "Particle size D(v, 0.5)", "result": 20.8, "unit": "μm"},
      {"measurement": "Particle size D(v, 0.9)", "result": 50.1, "unit": "μm"}
    ]}
  ]
}
